10 molecules from article PMC10054477, “Design, Synthesis, and Biological Evaluation of Sulfonamide Methoxypyridine Derivatives as Novel PI3K/mTOR Dual Inhibitors” (Pharmaceuticals, 2023) can be followed below.

Some results are limits rather than exact numbers.

One experiment addresses T1, PI3Kα (Homo sapiens, UniProt P42336).
T1 construct: purchased SignalChem P27-122DH
The experiment is described as follows: ADP-Glo kinase assay, PI3Kα enzyme inhibition. The format is biochemical. The following applies: at 1 nM. The protocol:
The enzymatic inhibitory assays of all target compounds against PI3Kα were performed with the ADP-Glo assay (Promega, Madison, WI, USA, catalog No. V9102/3). Briefly, compounds were continuously diluted to a certain concentration. […] The mixture was added to a 96-well plate and incubated in a dark place at ambient temperature for 40 min. Then, the kinase reaction was stopped by adding of ADP-Glo reagent and the plate was incubated again at ambient temperature for another 40 min. The kinase detection reagent was added and the signal was collected via PerkinElmer Envision plate reader (PE, Boston, MA, USA).

A further experiment has as its system HCT-116 cells. Kind of experiment: CCK-8 cell viability assay, HCT-116. It counts as cell-based. The following applies: Homo sapiens, mean (n = 3). The protocol:
(§1) MCF-7 and HCT-116 cells were purchased from the Meilunbio Biotechnology Co., Ltd. (Dalian, China). Cells were cultured at 37 °C with 5% CO2, using DMEM or RPMI 1640 medium (Meilunbio, Dalian, China) with 10% (v/v) fetal bovine serum (Gibco, San Diego, CA, USA) and 1% (v/v) penicillin and streptomycin (Meilunbio, Dalian, China). CCK-8 assay was used to determine the inhibitory effect in vitro. In short, cells were incubated into 96-well plates at the rate of 5000 cells per well. After 24 h of incubation, 100 μL medium was added, which contained a specific concentration of the test compound. After 72 h, 10 μL CCK-8 regent was added and the plate was incubated at 37 °C, 5% CO2 for 1 h. The optical density of each hole at 450 nm was read by a BioTek TS-800 microplate reader. GraphPad Prism 9.3.1 software was used to calculate the IC50 value.

A further experiment relates to MCF-7 cells. Kind of experiment: CCK-8 cell viability assay, MCF-7. The format is cell-based. Particulars: Homo sapiens, MCF7, 72 h, mean (n = 3). The protocol:
as §1

T1 sequence (P42336 whole entry): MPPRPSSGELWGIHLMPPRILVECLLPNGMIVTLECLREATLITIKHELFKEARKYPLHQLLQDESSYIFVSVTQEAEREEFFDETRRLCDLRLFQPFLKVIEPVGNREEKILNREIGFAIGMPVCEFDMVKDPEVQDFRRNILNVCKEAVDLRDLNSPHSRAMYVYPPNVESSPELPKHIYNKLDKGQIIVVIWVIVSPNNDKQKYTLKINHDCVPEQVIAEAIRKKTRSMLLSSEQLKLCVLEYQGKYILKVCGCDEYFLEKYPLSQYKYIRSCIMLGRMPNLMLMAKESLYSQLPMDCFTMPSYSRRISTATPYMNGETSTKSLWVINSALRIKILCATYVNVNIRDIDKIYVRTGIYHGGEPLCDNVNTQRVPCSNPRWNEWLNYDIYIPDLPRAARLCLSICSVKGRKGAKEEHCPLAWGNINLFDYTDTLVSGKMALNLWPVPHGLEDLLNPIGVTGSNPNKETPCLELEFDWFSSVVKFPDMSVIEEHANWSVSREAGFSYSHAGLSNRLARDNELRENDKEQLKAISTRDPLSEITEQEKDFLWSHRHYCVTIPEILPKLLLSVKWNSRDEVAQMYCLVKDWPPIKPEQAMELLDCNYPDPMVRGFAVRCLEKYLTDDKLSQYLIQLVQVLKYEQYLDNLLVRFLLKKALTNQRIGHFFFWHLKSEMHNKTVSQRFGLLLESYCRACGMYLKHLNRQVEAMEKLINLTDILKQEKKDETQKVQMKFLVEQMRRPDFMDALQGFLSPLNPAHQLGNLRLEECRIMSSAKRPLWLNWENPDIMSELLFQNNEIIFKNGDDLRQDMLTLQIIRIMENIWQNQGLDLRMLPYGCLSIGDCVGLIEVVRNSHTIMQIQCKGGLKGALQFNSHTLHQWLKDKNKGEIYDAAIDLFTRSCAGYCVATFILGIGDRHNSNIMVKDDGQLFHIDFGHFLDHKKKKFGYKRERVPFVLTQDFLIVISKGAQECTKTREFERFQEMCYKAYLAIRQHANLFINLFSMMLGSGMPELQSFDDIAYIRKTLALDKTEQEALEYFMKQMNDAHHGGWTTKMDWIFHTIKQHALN
T1 sequence (P27986 whole entry partner): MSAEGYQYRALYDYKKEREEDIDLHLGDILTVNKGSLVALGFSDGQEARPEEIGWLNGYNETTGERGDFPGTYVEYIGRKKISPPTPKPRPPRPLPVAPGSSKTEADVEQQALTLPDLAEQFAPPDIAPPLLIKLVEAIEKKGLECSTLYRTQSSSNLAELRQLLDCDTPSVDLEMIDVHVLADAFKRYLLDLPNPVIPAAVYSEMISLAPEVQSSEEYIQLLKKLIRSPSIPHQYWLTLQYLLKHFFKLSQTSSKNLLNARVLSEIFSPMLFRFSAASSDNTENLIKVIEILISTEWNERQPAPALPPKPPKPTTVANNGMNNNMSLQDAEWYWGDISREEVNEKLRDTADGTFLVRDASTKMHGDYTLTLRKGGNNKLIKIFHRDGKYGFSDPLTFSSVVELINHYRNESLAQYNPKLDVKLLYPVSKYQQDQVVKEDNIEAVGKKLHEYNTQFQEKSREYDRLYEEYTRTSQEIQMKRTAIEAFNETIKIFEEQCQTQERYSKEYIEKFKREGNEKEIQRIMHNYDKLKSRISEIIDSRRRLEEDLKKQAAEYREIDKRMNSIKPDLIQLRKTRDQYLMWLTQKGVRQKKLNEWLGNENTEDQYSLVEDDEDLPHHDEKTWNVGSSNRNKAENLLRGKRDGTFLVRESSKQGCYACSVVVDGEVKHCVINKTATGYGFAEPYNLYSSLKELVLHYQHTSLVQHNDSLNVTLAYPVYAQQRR

With `COCCNc1ncnc2ncc(-c3cnc(OC)c(NS(=O)(=O)c4ccc(F)cc4F)c3)cc12` [17j, N-(2-methoxy-5-(4-((2-methoxyethyl)amino)pyrido[2,3-d]pyrimidin-6-yl)pyridin-3-yl)-2,4-difluorobenzenesulfonamide], 0.001 µM produced 24% inhibition against PI3Kα (Table 2). In addition, the IC50 in the experiment with HCT-116 cells (Table 2, 72 h) was found to be 0.42 ± 0.12 µM; in the experiment with MCF-7 cells (Table 2), 0.75 ± 0.25 µM.
As for `CCCCNc1ncnc2ncc(-c3cnc(OC)c(NS(=O)(=O)c4ccc(F)cc4F)c3)cc12` [17c, N-(5-(4-(butylamino)pyrido[2,3-d]pyrimidin-6-yl)-2-methoxypyridin-3-yl)-2,4-difluorobenzenesulfonamide], the inhibition at 0.001 µM against PI3Kα (Table 2) was 21%. For the same molecule, the half-maximal inhibitory concentration (IC50) was 0.83 ± 0.25 µM with HCT-116 cells (Table 2, 72 h) and over 1 µM with MCF-7 cells (Table 2).
`CCCCNC(=O)c1cnc(-c2ccnc3ccc(-c4cnc(OC)c(NS(=O)(=O)c5ccc(F)cc5F)c4)cc23)o1` [22g, N-butyl-2-(6-(5-((2,4-difluorophenyl)sulfonamido)-6-methoxypyridin-3-yl)quinolin-4-yl)oxazole-5-carboxamide] yielded an inhibition at 0.001 µM at PI3Kα (Table 3) of 55%. Also, the IC50 came out at 0.32 ± 0.09 µM in the experiment on HCT-116 cells (Table 3, 72 h) and 0.45 ± 0.09 µM in the experiment on MCF-7 cells (Table 3).
At PI3Kα (Table 1), `COc1ncc(-c2ccc3c(c2)sc2c(N4CCC(C)CC4)ncnc23)cc1NS(=O)(=O)c1ccc(F)cc1F` [11b, N-(2-methoxy-5-(4-(4-methylpiperidin-1-yl)benzo[4,5]thieno[3,2-d]pyrimidin-7-yl)pyridin-3-yl) 2,4-difluorobenzenesulfonamide] displayed an inhibition at 0.001 µM of 10%. Also, the IC50 in the experiment on HCT-116 cells (Table 1, 72 h) was over 1 µM; in the experiment with MCF-7 cells (Table 1), over 1 µM.
As to `COCCNC(=O)c1cnc(-c2ccnc3ccc(-c4cnc(OC)c(NS(=O)(=O)c5ccc(F)cc5F)c4)cc23)o1` [22e, 2-(6-(5-((2,4-difluorophenyl)sulfonamido)-6-methoxypyridin-3-yl)quinolin-4-yl)-N-(2-methoxyethyl)oxazole-5-carboxamide], at PI3Kα (Table 3), the inhibition at 0.001 µM turned out to be 69%. Further, the IC50 in the experiment with HCT-116 cells (Table 3, 72 h) stood at 0.13 ± 0.05 µM; in the experiment on MCF-7 cells (Table 3), 0.2 ± 0.09 µM.
On to `COc1ncc(-c2ccc3c(c2)sc2c(N4CCOCC4)ncnc23)cc1NS(=O)(=O)c1ccc(F)cc1F` [11a, 2,4-difluoro-N-(2-methoxy-5-(4-morpholinobenzo[4,5]thieno[3,2-d]pyrimidin-7-yl)pyridin-3-yl)benzenesulfonamide], for which the inhibition at 0.001 µM on PI3Kα (Table 1) worked out at 10%. In addition, the 50% inhibitory concentration (IC50) is over 1 µM in the experiment on HCT-116 cells (Table 1, 72 h) and 0.96 ± 0.23 µM in the experiment with MCF-7 cells (Table 1).
`COc1ncc(-c2cnc3ncnc(NC4CC4)c3c2)cc1NS(=O)(=O)c1ccc(F)cc1F` [17b, N-(5-(4-(cyclopropylamino)pyrido[2,3-d]pyrimidin-6-yl)-2-methoxypyridin-3-yl)-2,4-difluorobenzenesulfonamide]: the inhibition at 0.001 µM at PI3Kα (Table 2) stood at 21%. Besides, the IC50 is 0.35 ± 0.17 µM with HCT-116 cells (Table 2, 72 h) and 0.91 ± 0.39 µM in the experiment on MCF-7 cells (Table 2).
Regarding `COc1ncc(-c2cnc3ncnc(NCC4CCCCC4)c3c2)cc1NS(=O)(=O)c1ccc(F)cc1F` [17k, N-(5-(4-((cyclohexylmethyl)amino)pyrido[2,3-d]pyrimidin-6-yl)-2-methoxypyridin-3-yl)-2,4-difluorobenzenesulfonamide], at 0.001 µM the inhibition on PI3Kα (Table 2) was 22%. Also, the IC50 in the experiment with HCT-116 cells (Table 2, 72 h) is over 1 µM; in the experiment with MCF-7 cells (Table 2), over 1 µM.
Turning to `COCCCNc1ncnc2c1sc1cc(-c3cnc(OC)c(NS(=O)(=O)c4ccc(F)cc4F)c3)ccc12` [11e, N-(2-methoxy-5-(4-((3-methoxypropyl)amino)benzo[4,5]thieno[3,2-d]pyrimidin-7-yl)pyridin-3-yl)-2,4-difluorobenzenesulfonamide], the inhibition at 0.001 µM at PI3Kα (Table 1) is 35%. Also, the IC50 was over 1 µM with HCT-116 cells (Table 1, 72 h) and over 1 µM in the experiment with MCF-7 cells (Table 1).
Consider `COCCCNc1ncnc2ncc(-c3cnc(OC)c(NS(=O)(=O)c4ccc(F)cc4F)c3)cc12` [17i, N-(2-methoxy-5-(4-((3-methoxypropyl)amino)pyrido[2,3-d]pyrimidin-6-yl)pyridin-3-yl)-2,4-difluorobenzenesulfonamide], for which the IC50 in the experiment on HCT-116 cells (Table 2, 72 h) is over 1 µM; in the experiment on MCF-7 cells (Table 2), over 1 µM.
